Test results published in patent US6242440A, “Synergistic compositions comprising an oxathiazine and a benzothiophene-2-carboxamide-S,S-dioxide” (Janssen Pharmaceutica N.V., priority 1997, dated 2001).

What was measured:
Sclerophoma = assay: wood stick test (Scots Pine); assay type: cell-based, Sclerophoma entoxylina
Description: (§1) Oven-dried wood sticks (50×12×2 mm) of Scots Pine (Pinus sylvestris) were dipped during 3 hours in a methanol solution comprising a compound of formula (I), a compound of formula (II), or a combination of a compound of formula (I) and a compound of formula (II), and allowed to dry overnight in a sterile laminar air flow. In each Petri dish one stick was placed on culture medium, PDA PS (Potato Dextrose Agar containing 60 mg penicillin and 200 mg streptomycin), previously seeded with inoculum. Two drops of fungal or spore suspension were pipetted on the upper surface of the stick The Petri dishes were incubated at 22° C. and 70% relative humidity. The test was evaluated after sufficient growth of the fungus on the control sticks. The following score system was used:
(§2) 0: sticks free of fungal growth
(§3) 1: traces of growth on the stick
(§4) 2: slight growth (5 to 25% of the surface covered)
(§5) 3 : moderate growth (25 to 50% of the surface covered)
(§6) 4: vigorous to maximum growth (more tha 50% covered)
(§7) To calculate synergism results were converted to the next artificial activities:
(§8) Yhe expected activities E were calculated by using the so-called formula of Colby: (Colby, S. R. Weeds 1967, 15: 20-22), [formula]
(§9) wherein X and Y express the relative activities obtained for each of the active ingredients. A synergistic effect can be acknowledged if the found activity exceeds calculated activity.
(§10) The compound of formula (I) used in the experiment was 3-benzo[b]-thien-2-yl)-5,6-dihydro-1,4,2-oxathiazine 4-oxide, i.e. compound (1). The compound of formula (II) used in the experiment was N-cyclohexyl-benzothiophene-2-carboxamide-S,S-dioxide, i.e. compound (2).

Aureobasidium = assay: wood stick test (Scots Pine); assay type: cell-based, Aureobasidium pullulans; details: read-out: measured (relative) activity %
Description: as §1, §2, §3, §4, §5, §6, §7, §8, §9, §10

Aspergillus = assay: wood stick test (Scots Pine); assay type: cell-based, Aspergillus niger
Description: as §1, §2, §3, §4, §5, §6, §7, §8, §9, §10

Sclerophoma entoxylina = assay: poison plate assay, mycelial growth and sporulation; assay type: cell-based
Description: (§11) The efficacy of the active ingredients against mycelial growth and sporulation of Aureobasidium pullulans, Aspergillus niger, Scierophoma entoxylina, Trichodenna viride, was determined in the poison plate assay. The required concentrations of the fungicide(s) were obtained by diluting the active ingredients (I), (II) or the combination of (I) and (II) in dimethyl sulfoxide (DMSO) at 800 times the final test concentration. The stock solutions in DMSO were pipetted into Petri-dishes. Malt extract agar (3%) was added aseptically and uniform distribution was obtained by shaking. Each plate was spot inoculated with a spore or mycelial suspension. After incubation at 22° C. and 70% relative humidity for a period long enough to allow complete growth of controls, diameters of colonies were measured. Relative activities were calculated by taking the absence of fungal growth (diameter 0 mm) as 100%. From the activity of the active ingredients alone, the expected activities E were calculated by using the so-called formula of Colby: (Colby, S. R. Weeds 1967, 15: 20-22), [formula]
as §9
(§12) Equal efficacy was observed whenever complete inhibition of fungal growth occurred by one of the active ingredients (I) or (II) alone. The compound of formula (I) used in the experiment was 3-benzo[b]-thien-2-yl)-5,6-dihydro-1,4,2-oxathiazine 4-oxide, i.e. compound (1). The compound of formula (II) used in the experiment was N-cyclohexyl-benzothiophene-2-carboxamide-S,S-dioxide, i.e. compound (2).

Trichoderma viride = assay: as above; assay type: cell-based
Description: as §11, §9, §12

Aspergillus niger = assay: as above; assay type: cell-based
Description: as §11, §9, §12

Aureobasidium pullulans = assay: as above; assay type: cell-based
Description: as §11, §9, §12

## [O-][S+]1CCON=C1c1cc2ccccc2s1 (stereo not shown) [compound (1), 3-(benzo[b]thien-2-yl)-5,6-dihydro-1,4,2-oxathiazine, 4-oxide]
Sclerophoma; (1) 200 ppm
  % overgrown of the sticks: 100%
  stick test scores: 4 (vigorous to maximum growth (more tha 50% covered))
Sclerophoma; (1) 400 ppm
  % overgrown of the sticks: 50%
  stick test scores: 3 (moderate growth (25 to 50% of the surface covered))
Sclerophoma; Sclerophoma entoxylina, (1) 200 ppm, read-out: measured (relative) activity %
  activity at 200 ppm: 0%
Sclerophoma; Sclerophoma entoxylina, (1) 400 ppm, read-out: measured (relative) activity %
  activity at 400 ppm: 50%
Aureobasidium; (1) 200 ppm
  activity at 200 ppm: 0%
Aureobasidium; (1) 400 ppm
  activity at 400 ppm: 50%
Aspergillus; (1) 200 ppm
  % overgrown of the sticks: 100%
  stick test scores: 4 (vigorous to maximum growth (more tha 50% covered))
Aspergillus; (1) 400 ppm
  % overgrown of the sticks: 50%
  stick test scores: 3 (moderate growth (25 to 50% of the surface covered))
Aspergillus; Aspergillus, (1) 400 ppm, read-out: measured (relative) activity %
  activity at 400 ppm: 50%
Sclerophoma entoxylina; Exp 1, 5 days, (1) 0.62 mg/l
  activity measured: 2%
  growth: 42 mm
Sclerophoma entoxylina; Exp 1, 5 days, (1) 1.25 mg/l
  activity measured: 14%
  growth: 37 mm
Sclerophoma entoxylina; Exp 1, 5 days, (1) 2.50 mg/l
  activity measured: 37%
  growth: 27 mm
Sclerophoma entoxylina; Exp 1, 5 days, (1) 5.00 mg/l
  activity measured: 84%
  growth: 7 mm
Sclerophoma entoxylina; Exp 2, 7 days, (1) 1.25 mg/l
  activity measured: 4%
  growth: 47 mm
Sclerophoma entoxylina; Exp 2, 7 days, (1) 2.50 mg/l
  activity measured: 18%
  growth: 40 mm
Trichoderma viride; Exp 1, 5 days, (1) 0.62 mg/l
  activity measured: 0%
  growth: 49 mm
Trichoderma viride; Exp 1, 5 days, (1) 1.25 mg/l
  activity measured: 0%
  growth: 49 mm
Trichoderma viride; Exp 1, 5 days, (1) 2.50 mg/l
  activity measured: 2%
  growth: 48 mm
Trichoderma viride; Exp 1, 5 days, (1) 5.00 mg/l
  activity measured: 29%
  growth: 35 mm
Trichoderma viride; Exp 2, 7 days, (1) 1.25 mg/l
  activity measured: 12%
  growth: 43 mm
Trichoderma viride; Exp 2, 7 days, (1) 2.50 mg/l
  activity measured: 29%
  growth: 35 mm
Aspergillus niger; Exp 1, 5 days, (1) 0.62 mg/l
  activity measured: 5%
  growth: 42 mm
Aspergillus niger; Exp 1, 5 days, (1) 1.25 mg/l
  activity measured: 14%
  growth: 38 mm
Aspergillus niger; Exp 1, 5 days, (1) 2.50 mg/l
  activity measured: 39%
  growth: 27 mm
Aspergillus niger; Exp 1, 5 days, (1) 5.00 mg/l
  activity measured: 100%
  growth: 0 mm
Aspergillus niger; Exp 2, 7 days, (1) 1.25 mg/l
  activity measured: 16%
  growth: 38 mm
Aspergillus niger; Exp 2, 7 days, (1) 2.50 mg/l
  activity measured: 44%
  growth: 25 mm
Aureobasidium pullulans; Exp 1, 5 days, (1) 0.62 mg/l
  activity measured: 13%
  growth: 33 mm
Aureobasidium pullulans; Exp 1, 5 days, (1) 1.25 mg/l
  activity measured: 32%
  growth: 26 mm
Aureobasidium pullulans; Exp 1, 5 days, (1) 2.50 mg/l
  activity measured: 61%
  growth: 15 mm
Aureobasidium pullulans; Exp 1, 5 days, (1) 5.00 mg/l
  activity measured: 87%
  growth: 5 mm
Aureobasidium pullulans; Exp 2, 7 days, (1) 1.25 mg/l
  activity measured: 8%
  growth: 44 mm
Aureobasidium pullulans; Exp 2, 7 days, (1) 2.50 mg/l
  activity measured: 21%
  growth: 38 mm
